Source: patent publication US12377095B2, “Use of ligustrazine nitrone derivatives in treatment and prevention of diabetic complication diseases” (QINGDAO HAILAN PHARMACEUTICALS CO., LTD., priority 2019, dated 2025)

Key:
db/db mice [1] = test: Electron microscopy of kidney tissue in db/db mice; assay type: in vivo, mouse
Source text: (§1) db/db mice are congenital obese type 2 DKD mice with spontaneous mutations in the leptin receptor (Leptin receptor, Lepr) due to a point mutation in the leptin receptor gene GT located on chromosome 4. The course of polyphagia, polyuria, diabetes and hyperglycemia is similar to that of humans, and it is currently the most widely used type 2 spontaneous animal model of DKD. The db/db mice have a series of complications with the aggravation of diabetes. The main pathological changes of renal tissue are the expansion of the glomerular mesangial interstitium, the thickening of the glomerular basement membrane, and the excessive accumulation of extracellular matrix. However, the glomerular mesangium of db/db mice changes relatively slowly, and the glomerular mesangium will not be dissolved or nodular glomerulosclerosis, and there is no progressive renal insufficiency.
(§2) Six-week-old db/db mice were purchased, and start the administration after adaptive feeding for 1 week (i.e., 7-week-old). TBN is administered twice a day (fixed by starting from 9:00-10:00 am and 3:00-4:00 pm, with an interval of 6 hours), and the positive control drug Losartan was administered once a day (fixed at 9:00-10:00 am) for 6 weeks.
After the mice were executed, the renal cortex was quickly taken with sharp blade (performed on ice); fixed with 2.5% glutaraldehyde (pH 7.4) at 4° C. for 6 h; then fixed for 2 h in a stationary liquid having 1:1 of 0.2 mmol/L PBS and 2% osmic acid, and dehydrated with gradient acetone at 4° C., 10 min for each of 50%, 70%, 90% acetone, then dehydrated with 100% acetone at room temperature twice, each time 15 min; in 1:1 acetone and Epon812 epoxy resin embedded mixed liquid, soaked at room temperature for 30 min; then dipped through the pure furnishings overnight, the embedding agent was made enveloping into tissue blocks completely to replace the dehydrating agent; the samples were embedded in the embedder for ultra-thin slicing, placed at 35° C. for 12 h; placed at 45° C. for 12 h; placed at 60° C. for 48 h; placed in a 37° C. oven for 36 h, in a 60° C. oven for 36 h; 1.5 μm semi-slice was prepared with an ultra-thin slicer; positioning under optical microscope, a trapeter having a top area of about 1 mm^2 was shaped to prepare 60-70 nm thick ultra-thin slices; dyed in dark with acetate hydroxide liquid for 10 min, and dyed in lead-stained citrate for 10 min.

STZ-induced DKD rats [2] = test: Masson staining, interstitial fibrosis index, STZ-induced DKD rats; assay type: in vivo, rat
Experimental: Before the injection, the rats were fasted for 12 hours without water. After weighing, the rats were injected with 55 mg/kg STZ intraperitoneally (STZ needs to be injected quickly, and the injection was completed within 10 minutes), and then returned to the cage to ensure that the rats had sufficient drinking water for 24 hours. Rats were injected with an equal volume of citrate buffer (pH 4.5). After STZ injection for 3 weeks, blood was collected from the tail vein, and blood glucose ≥16.7 mmol/L was used as the criteria for the standard of the rats.
The route of administration is intragastric administration. TBN was administered twice a day (fixed at 9:00-10:00 am and 3:00-4:00 pm), and Losartan was administered once a day (fixed at 9:00-10:00 am) continuously for 6 weeks.
At the end of the experiment, the kidney tissues were quickly separated, fixed with 4% paraformaldehyde and embedded in paraffin, serially sliced, 5 μm each, dried at 37° C. for 1 h, and then subjected to Masson staining. The process is briefly as follows: paraffin sections are taken out of the 65° C. oven and immediately put in xylene for dewaxing and gradient alcohol rehydration, according to the kit instructions, add reagent A (a mixture of equal amounts of A1 and A2) for dyeing for 8 min; then use Reagent B differentiates and reagent C turns blue; reagent D stains for 7 min; reagent E washes for 1 min; reagent F washes for 1 min; reagent G stains for 1 min; dehydrated with 95% ethanol and absolute ethanol, transparent xylene, sealed with neutral gum piece.

db/db mice [3] = test: HE histopathology of kidney tissue in db/db mice; assay type: in vivo, mouse
Source text: as §1, §2
The HE dyeing process is as shown in Example 9.

STZ-induced SHR rats = test: PAS staining, glomerular hardening of STZ-induced SHR rats; assay type: in vivo, rat; details: 60 mg/kg
Experimental: 6 W-age SHR rats were abstained from food but not water for 12 h before injection, and then intraperitoneally injected with 55 mg/kg STZ after weighing (STZ required for fast injection, to be completed within 10 min), then put back to the cage to ensure that rat has sufficient drinking water in the period of 24 h, and the rats of normal control group were injected with citric acid buffer (pH 4.5) in the same volume. After 3 weeks of STZ injection, retinal venous blood was collected, and blood glucose ≥16.7 mmol/L was used as a molding standard, where the model of SHR rats that meet the above criteria is considered successful.
The route of administration is intragastrical, TBN is administered twice a day (fixed at 9:00-10:00 am and 3:00-4:00 pm), and Losartan is administered once a day (fixed at 9:00-10:00 am), continuously for 6 weeks.
The process is the same as in Example 9.

STZ-induced DKD rats [4] = test: Kidney index of STZ-induced DKD rats; assay type: in vivo, rat; details: after 6 weeks of administration
Experimental: SD rats (200±10 g) were used as model animals, which were fasted for 12 h before injection. STZ was dissolved in citrate buffer at 1% concentration, and rats were fasted and intraperitoneally injected with 55 mg/kg STZ and placed in the cage, the rats being ensured with adequate water intake for 24 h. STZ injections need to be fast and complete within 10 minutes of injection. The normal control group was injected with an equal volume of pH 4.5 citric acid-sodium citrate buffer. The state of the animals (multiple drinking and polyuria) was observed. After 3 weeks of STZ injection, blood was collected from the tail vein, and fasting blood glucose ≥16.7 mmol/L was measured as the standard for diabetic nephropathy in rats.
DKD rats were randomly assigned to 6 groups and given with different drugs. After 6 weeks of administration, the experiment was terminated and the protective effect of the drug on DKD rats was observed.
After 6 weeks of administration, the kidney tissue was uniformly separated by an autoclave surgical instrument, and washed with normal saline. After the filter paper was blotted, the fine balance was weighed, and then stored in a refrigerator at −80° C. for use. Kidney index (relative to kidney weight) is kidney weight (mg)/body weight (g)[…].

**Q.** With Cc1nc(C)c(/C=[N+](\[O-])C(C)(C)C)nc1C [TBN] as the molecule, how does the podocyte fusion (db/db mice [1]; 10 mg/kg) read?
**A.** slight podocyte fusion

**Q.** What about the “proliferation of the glomerular membrane” value (db/db mice [1]; 10 mg/kg) of the same molecule?
**A.** no significant proliferation

**Q.** And the “thickness of the glomerular base film” value (db/db mice [1]; 10 mg/kg, 6 weeks (TBN P<0.05; Losartan P<0.01))?
**A.** decrease

**Q.** And the podocyte fusion (db/db mice [1]; 30 mg/kg)?
**A.** podocyte fusion in small area

**Q.** What about the “proliferation of the glomerular measuring membrane” value (db/db mice [1]; 30 mg/kg) of the same molecule?
**A.** no significant proliferation

**Q.** What about the “thickness of the glomerular base film” value (db/db mice [1]; 30 mg/kg, P<0.01 vs db/db) of the same molecule?
**A.** significantly reduced

**Q.** What about the podocyte fusion (db/db mice [1]; 60 mg/kg) of the same molecule?
**A.** no obvious segmental fusion

**Q.** What about the “proliferation of glomerular membranes” value (db/db mice [1]; 60 mg/kg) of the same molecule?
**A.** no significant proliferation

**Q.** And the “thickness of the glomerular base film” value (db/db mice [1]; 60 mg/kg, P<0.01 vs db/db)?
**A.** significantly reduced

**Q.** And the interstitial fibrosis index (STZ-induced DKD rats [2]; 60 mg/kg, P<0.01)?
**A.** improved the most significantly

**Q.** And the interstitial fibrosis index (STZ-induced DKD rats [2]; TBN treatment groups (10, 30, 60 mg/kg), dose-dependent)?
**A.** decreased

**Q.** And the “degree of infiltration of kidney inflammatory cells vs db/db group” value (db/db mice [3]; 30 mg/kg and 60 mg/kg dose groups)?
**A.** obviously improved

**Q.** What about the “pathological structure of kidney injury (H&E)” value (db/db mice [3]; TBN dose groups (10, 30, 60 mg/kg), in various degrees) of the same molecule?
**A.** improvement

**Q.** What about the “glomerular area (glomerular surface)” value (db/db mice [3]; TBN treatment groups, dose-dependent, more significantly for 30 mg/kg and 60 mg/kg) of the same molecule?
**A.** reduced

**Q.** And the “degree of glomerular hardening (PAS) vs SHR-STZ group” value (STZ-induced SHR rats)?
**A.** significantly lower

**Q.** What about the kidney index (STZ-induced DKD rats [4]) of the same molecule?
**A.** significantly reduced
